In US20240116985A1, “STAPLED PEPTIDES AND METHODS THEREOF” (priority 2020, published 2024):
Like-named read-outs stand apart in the source and are kept apart here.

Legend:
[1] = molecular target: T1, beta-catenin/TCF4 engagement (Homo sapiens, UniProt P35222); assay: Nano-BRET target engagement assay (B-cat-Halo & TCF4-Luc in HEK293 cells); type: cell-based; settings: read-out: NanoBRET Abs IC50
T1 construct: expressed in transfected cells; host or cells: HEK293
T1 sequence (P35222 1-781): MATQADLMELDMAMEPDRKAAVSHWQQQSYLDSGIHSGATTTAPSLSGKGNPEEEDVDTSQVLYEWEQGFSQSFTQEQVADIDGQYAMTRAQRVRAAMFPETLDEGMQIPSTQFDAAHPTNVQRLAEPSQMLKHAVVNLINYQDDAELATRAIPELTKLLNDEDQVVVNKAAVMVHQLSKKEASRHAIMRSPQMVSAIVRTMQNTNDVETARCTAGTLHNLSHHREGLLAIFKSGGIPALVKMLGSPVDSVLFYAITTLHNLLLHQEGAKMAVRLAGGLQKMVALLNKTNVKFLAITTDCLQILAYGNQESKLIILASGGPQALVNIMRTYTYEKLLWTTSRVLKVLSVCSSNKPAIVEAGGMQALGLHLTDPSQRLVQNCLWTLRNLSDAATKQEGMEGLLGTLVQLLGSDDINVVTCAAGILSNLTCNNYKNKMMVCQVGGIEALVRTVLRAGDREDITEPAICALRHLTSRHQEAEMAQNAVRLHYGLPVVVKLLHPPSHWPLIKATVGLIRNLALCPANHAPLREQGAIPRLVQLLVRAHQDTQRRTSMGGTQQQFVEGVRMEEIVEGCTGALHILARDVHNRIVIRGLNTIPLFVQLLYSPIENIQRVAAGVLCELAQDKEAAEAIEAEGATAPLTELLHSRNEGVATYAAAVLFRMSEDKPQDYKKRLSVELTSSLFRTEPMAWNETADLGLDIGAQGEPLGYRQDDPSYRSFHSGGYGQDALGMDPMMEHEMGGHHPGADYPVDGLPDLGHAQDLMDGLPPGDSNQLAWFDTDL

[2] = system: TCF/LEF luciferase Reporter in DLD1 cells; assay: TCF reporter assay (DLD1 TCF/LEF luciferase reporter, Bright-Glo); type: cell-based
Summary of the method: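 DLD1 cells stably carrying a TCF/LEF luciferase reporter were plated at 5000 cells/well in RPMI + 4% FBS and treated overnight with a 1:2 compound dilution series. Bright-Glo luminescence read on day 3; viability by CellTiter-Glo. Absolute IC50 determined.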

[3] = molecular target: T2, full-length beta-Catenin (Uniprot ID P35222) (Homo sapiens, UniProt P35222); assay: Fluorescence polarization IC50 (beta-catenin / 5FAM-TCF4 10-53 competition); type: binding; settings: read-out: beta-Catenin FP IC50
T2 construct: 10 nM full-length beta-Catenin (Uniprot ID P35222)
T2 sequence (P35222 1-781): T1 sequence (P35222 1-781)

[4] = read-out: DLD1 4% Abs IC50, DLD1 reporter, 4%, absolute IC50
[5] = read-out: DLD1 4% Abs IC50, DLD1 reporter assay, 4%, absolute IC50
[6] = absolute IC50, read-out: DLD1 reporter assay Abs IC50

| SMILES | IC50 ([1]; absolute IC50) [nM] | IC50 [2, 4] [nM] | IC50 ([3]; fluorescence polarization) [nM] | IC50 [2, 5] [nM] | IC50 [2, 6] [nM] | IC50 [3] [nM] | IC50 [1] [nM] | IC50 ([2]; read-out: DLD1 4% Abs IC50, DLD1 4%) [nM] |
| --- | --- | --- | --- | --- | --- | --- | --- | --- |
| CC(=O)N1CCC[C@]12CC=CCCCC1(CCCC=CCCCOC(=O)N3CC[C@@](C(=O)N[C@@H](Cc4ccccc4C(F)(F)F)C(=O)N[C@@H](Cc4csc5ccccc45)C(=O)N[C@@H](CCC(N)=O)C(=O)N[C@@H](CC(C)C)C(=O)N[C@@H](CC(N)=O)C(N)=O)(C3)NC(=O)[C@H](CC(C)C)NC(=O)[C@H](Cc3ccccc3)NC(=O)[C@H](C)NC(=O)[C@H](C)NC(=O)[C@H](Cc3cccc(C(=O)O)c3)NC(=O)[C@H](CC(=O)O)NC1=O)NC(=O)[C@H](CC(C)(C)C)NC(=O)[C@H](CC(=O)O)NC2=O (stereo partly drawn) [I-2390, Ac-PL3-Asp-Npg-B5-Asp-3COOHF-Ala-Ala-Phe-Leu-PyrS2-2F3MeF-BztA-Gln-Leu-Asn-NH2] | 9100 | 1400 | 22 | – | – | – | – | – |
| CC(=O)N1CCC[C@]12CC=CCCCC1(CCCC=CCCCOC(=O)N3CC[C@@](C(=O)N[C@@H](Cc4ccccc4C(F)(F)F)C(=O)N[C@@H](Cc4csc5ccccc45)C(=O)N[C@@H](CCC(N)=O)C(=O)N[C@@H](CC(C)C)C(=O)N[C@@H](CO)C(N)=O)(C3)NC(=O)[C@H](CC(C)C)NC(=O)[C@H](Cc3ccccc3)NC(=O)[C@H](C)NC(=O)[C@H](C)NC(=O)[C@H](Cc3cccc(C(=O)O)c3)NC(=O)[C@H](CC(=O)O)NC1=O)NC(=O)[C@H](CC(C)(C)C)NC(=O)[C@H](CC(=O)O)NC2=O (stereo partly drawn) [I-2384, Ac-PL3-Asp-Npg-B5-Asp-3COOHF-Ala-Ala-Phe-Leu-PyrS2-2F3MeF-BztA-Gln-Leu-Ser-NH2] | 4600 | 1100 | 5 | – | – | – | – | – |
| CC(=O)N1CCC[C@]12CC=CCCCC1(CCCC=CCCCOC(=O)N3CC[C@@](C(=O)N[C@@H](Cc4ccccc4C(F)(F)F)C(=O)N[C@@H](Cc4csc5ccccc45)C(=O)N[C@@H](CCC(N)=O)C(=O)N[C@@H](CC(C)C)C(=O)N[C@H](C)C(N)=O)(C3)NC(=O)[C@H](CC(C)C)NC(=O)[C@H](Cc3ccccc3)NC(=O)[C@H](C)NC(=O)[C@H](C)NC(=O)[C@H](Cc3cccc(C(=O)O)c3)NC(=O)[C@H](CC(=O)O)NC1=O)NC(=O)[C@H](CC(C)(C)C)NC(=O)[C@H](CC(=O)O)NC2=O (stereo partly drawn) [I-2395, Ac-PL3-Asp-Npg-B5-Asp-3COOHF-Ala-Ala-Phe-Leu-PyrS2-2F3MeF-BztA-Gln-Leu-dAla-NH2] | 5500 | 1200 | 28 | – | – | – | – | – |
| CC(=O)N1CCC[C@]12CC=CCCCC1(CCCC=CCCCOC(=O)N3CC[C@@](C(=O)N[C@@H](Cc4ccsc4)C(=O)N[C@@H](Cc4csc5ccccc45)C(=O)N[C@@H](CCC(N)=O)C(N)=O)(C3)NC(=O)[C@H](CC(C)C)NC(=O)[C@H](Cc3ccccc3)NC(=O)[C@H](C)NC(=O)[C@H](C)NC(=O)[C@H](CN(CCCC(F)(F)F)CC(=O)O)NC(=O)[C@H](CC(=O)O)NC1=O)NC(=O)[C@H](CC(C)(C)C)NC(=O)[C@H](CC(=O)O)NC2=O (stereo partly drawn) [I-1629, Ac-PL3-Asp-Npg-B5-Asp-[Tfb]GA-Ala-Ala-Phe-Leu-PyrS2-3Thi-BztA-Gln-NH2] | 4300 | – | 12 | 2700 | – | – | – | – |
| CC(=O)N1CCC[C@]12CC=CCCCC1(CCCC=CCCCOC(=O)N3CC[C@@](C(=O)N[C@@H](Cc4ccsc4)C(=O)N[C@@H](Cc4csc5ccccc45)C(=O)N[C@@H](CCC(N)=O)C(=O)O)(C3)NC(=O)[C@H](CC(N)=O)NC(=O)[C@H](Cc3ccccc3)NC(=O)[C@H](C)NC(=O)[C@H](C)NC(=O)[C@H](CC(=O)O)NC(=O)[C@H](CC(=O)O)NC1=O)NC(=O)[C@H](CC(C)(C)C)NC(=O)[C@H](CC(=O)O)NC2=O (stereo partly drawn) [I-1025, Ac-PL3-Asp-Npg-B5-Asp-Asp-Ala-Ala-Phe-Asn-PyrS2-3Thi-BztA-Gln-OH] | 23600 | – | – | – | > 20000 | 5 | – | – |
| CC(=O)N1CCC[C@]12CC=CCCCC1(CCCC=CCCCOC(=O)N3CC[C@@](C(=O)N[C@@H](Cc4ccsc4)C(=O)N[C@@H](Cc4csc5ccccc45)C(=O)N[C@H](C(N)=O)[C@@H](C)O)(C3)NC(=O)[C@H](CC(N)=O)NC(=O)[C@H](Cc3ccccc3)NC(=O)[C@H](C)NC(=O)C(C)(C)NC(=O)[C@H]([C@@H](C)O)NC(=O)[C@H](CC(N)=O)NC1=O)NC(=O)[C@H](CC(C)(C)C)NC(=O)[C@H](CC(=O)O)NC2=O (stereo partly drawn) [I-2416, Ac-PL3-Asp-Npg-B5-Asn-Thr-Aib-Ala-Phe-Asn-PyrS2-3Thi-BztA-Thr-NH2] | > 20000 | > 20000 | 133 | – | – | – | – | – |
| CC(=O)N1CCC[C@]12CC=CCCCC1(CCCC=CCCCOC(=O)N3CC[C@@](C(=O)N[C@@H](Cc4ccccc4C(F)(F)F)C(=O)N[C@@H](Cc4csc5ccccc45)C(=O)N[C@@H](CCC(N)=O)C(=O)N[C@@H](CC(C)C)C(=O)NC4(C(N)=O)CCC4)(C3)NC(=O)[C@H](CC(C)C)NC(=O)[C@H](Cc3ccccc3)NC(=O)[C@H](C)NC(=O)[C@H](C)NC(=O)[C@H](Cc3cccc(C(=O)O)c3)NC(=O)[C@H](CC(=O)O)NC1=O)NC(=O)[C@H](CC(C)(C)C)NC(=O)[C@H](CC(=O)O)NC2=O (stereo partly drawn) [I-2388, Ac-PL3-Asp-Npg-B5-Asp-3COOHF-Ala-Ala-Phe-Leu-PyrS2-2F3MeF-BztA-Gln-Leu-Cbg-NH2] | 5700 | 1200 | 133 | – | – | – | – | – |
| CC(=O)N1CCC[C@]12CC=CCCCC1(CCCC=CCCCOC(=O)N3CC[C@@](C(=O)N[C@@H](Cc4ccccc4C(F)(F)F)C(=O)N[C@@H](Cc4csc5ccccc45)C(=O)N[C@@H](CCC(N)=O)C(=O)N[C@@H](CC(C)C)C(=O)N[C@H](C(N)=O)[C@@H](C)O)(C3)NC(=O)[C@H](CC(C)C)NC(=O)[C@H](Cc3ccccc3)NC(=O)[C@H](C)NC(=O)[C@H](C)NC(=O)[C@H](Cc3cccc(C(=O)O)c3)NC(=O)[C@H](CC(=O)O)NC1=O)NC(=O)[C@H](CC(C)(C)C)NC(=O)[C@H](CC(=O)O)NC2=O (stereo partly drawn) [I-2383, Ac-PL3-Asp-Npg-B5-Asp-3COOHF-Ala-Ala-Phe-Leu-PyrS2-2F3MeF-BztA-Gln-Leu-Thr-NH2] | 4200 | 800 | 77 | – | – | – | – | – |
| CC(=O)N1CCC[C@]12CC=CCCCC1(CCCC=CCCCOC(=O)N3CC[C@@](C(=O)N[C@@H](Cc4ccsc4)C(=O)N[C@@H](Cc4csc5ccccc45)C(=O)N[C@@H](CC(N)=O)C(=O)N[C@@H](C)C(=O)N[C@@H](C)C(=O)N[C@H](C)C(N)=O)(C3)NC(=O)[C@H](CC(C)C)NC(=O)[C@H](Cc3ccccc3)NC(=O)[C@H](C)NC(=O)[C@H](C)NC(=O)[C@H](Cc3cccc(C(=O)O)c3)NC(=O)[C@H](CC(=O)O)NC1=O)NC(=O)[C@H](CC(C)(C)C)NC(=O)[C@H](CC(=O)O)NC2=O (stereo partly drawn) [I-2047, Ac-PL3-Asp-Npg-B5-Asp-3COOHF-Ala-Ala-Phe-Leu-PyrS2-3Thi-BztA-Asn-Ala-Ala-dAla-NH2] | – | – | 11 | – | – | – | 2600 | 1300 |
| CC(=O)N1CCC[C@]12CC=CCCCC1(CCCC=CCCCOC(=O)N3CC[C@@](C(=O)N[C@@H](Cc4ccccc4Cl)C(=O)N[C@@H](Cc4csc5ccccc45)C(=O)N[C@H](CO)[C@@H](C)O)(C3)NC(=O)[C@H]([C@@H](C)O)NC(=O)[C@H](Cc3ccccc3)NC(=O)[C@H](C)NC(=O)[C@H](C)NC(=O)[C@H](CC(=O)O)NC(=O)[C@H](CC(=O)O)NC1=O)NC(=O)[C@H](CC(C)(C)C)NC(=O)[C@H](CC(=O)O)NC2=O (stereo partly drawn) [I-1245, Ac-PL3-Asp-Npg-B5-Asp-Asp-Ala-Ala-Phe-Thr-PyrS2-2C1F-BztA-Thro1] | 12200 | 4100 | 9 | – | 7300 | – | – | – |
| CC(=O)N1CCC[C@]12CC=CCCCC1(CCCC=CCCCOC(=O)N3CC[C@@](C(=O)N[C@@H](Cc4ccsc4)C(=O)N[C@@H](Cc4csc5ccccc45)C(=O)N[C@@H](C)C(N)=O)(C3)NC(=O)[C@H](CC(C)C)NC(=O)[C@H](Cc3ccccc3)NC(=O)[C@H](C)NC(=O)[C@H](C)NC(=O)[C@H](CN(CC(=O)O)CC(F)(F)F)NC(=O)[C@H](CC(=O)O)NC1=O)NC(=O)[C@H](CC(C)(C)C)NC(=O)[C@H](CC(=O)O)NC2=O (stereo partly drawn) [I-1710, Ac-PL3-Asp-Npg-B5-Asp-TfeGA-Ala-Ala-Phe-Leu-PyrS2-3Thi-BztA-Ala-NH2] | 3900 | – | 22 | 1900 | – | – | – | – |
